The values that follow come from patent US12486234B2, “PAPD5 inhibitors and methods of use thereof” (Children's Medical Center Corporation, priority 2019, dated 2025).

Test [1] concerns the target T1, PAPD5 (Homo sapiens, UniProt Q8NDF8).
T1 construct: made in house
Put plainly: DSF binding assay (shift in temperature). Particulars: shift in temperature at 100 μM of the compound. On the procedure: (§1) Qualitative measure of RNA oligo-extension inhibition for the tested compounds, expressed as range from minimal activity (0) to that of compound 1 (+++), and results of a DSF binding assay (shown as shift in temperature at 100 μM of the compound) are shown in the Table 2 below.

Test [2] has as its target T1, PAPD5. Put plainly: RNA oligo-adenylation (oligo-extension) inhibition assay with recombinant PAPD5. Type of test: biochemical. Particulars: qualitative measure of RNA oligo-extension inhibition, relative to compound 1. Also noted: key: minimal activity (0); range from minimal activity (0) to that of compound 1 (+++); range from minimal activity (0) to that of compound 1 (+++); that of compound 1 (+++). On the procedure: An in vitro RNA polyadenylation assay using recombinant PAPD5, ATP and an oligonucleotide substrate utilized the following phenomenon: ATP utilization by PAPD5 reads out as a decreased luminescence signal produced by luciferase (KinaseGlo, Promega, Madison, WI).
as §1

T1 sequence (Q8NDF8 68-698 isoform Q8NDF8-5 limits assumed): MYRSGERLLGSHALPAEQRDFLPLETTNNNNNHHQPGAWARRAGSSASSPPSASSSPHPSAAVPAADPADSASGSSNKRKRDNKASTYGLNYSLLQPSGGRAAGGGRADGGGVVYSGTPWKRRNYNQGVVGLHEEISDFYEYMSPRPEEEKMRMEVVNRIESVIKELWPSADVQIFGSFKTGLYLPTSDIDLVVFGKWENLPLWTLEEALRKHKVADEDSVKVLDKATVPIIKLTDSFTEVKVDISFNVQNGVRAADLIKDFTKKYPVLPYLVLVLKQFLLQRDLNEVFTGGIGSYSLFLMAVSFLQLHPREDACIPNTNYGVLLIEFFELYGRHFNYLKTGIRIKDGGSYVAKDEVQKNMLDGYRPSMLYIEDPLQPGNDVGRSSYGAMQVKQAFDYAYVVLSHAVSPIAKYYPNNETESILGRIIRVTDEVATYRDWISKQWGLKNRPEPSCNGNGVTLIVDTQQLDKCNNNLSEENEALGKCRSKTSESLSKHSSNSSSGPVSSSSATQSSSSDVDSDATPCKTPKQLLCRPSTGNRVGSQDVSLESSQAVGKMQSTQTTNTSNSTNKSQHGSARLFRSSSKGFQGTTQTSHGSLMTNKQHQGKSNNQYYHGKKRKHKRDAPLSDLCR

As usually defined, the ΔTm is the change in melting temperature against a reference sample. With `NS(=O)(=O)c1cnc2ccc(-c3cccc4ncoc34)cc2c1Nc1ccccc1C(=O)O` [Compound 64A, 2-[[6-(1,3-benzoxazol-7-yl)-3-sulfamoyl-4-quinolyl]amino]benzoic acid], the ΔTm at 100 µM on PAPD5 [1] came to 6.3 °C.

For `CCOC(=O)c1cnc2ccc(C(=O)N3CCNCC3)cc2c1Nc1ccccc1C(=O)O` [Compound 18A, 2-[[3-ethoxycarbonyl-6-(piperazine-1-carbonyl)-4-quinolyl]amino]benzoic acid], the ΔTm at 100 µM on PAPD5 [1] was -0.1 °C. At PAPD5 [2], the “Inhibition of PAPD5 RNA oligo adenylation” value (from here on “Inhibition”) is 0.

Consider `CCOC(=O)c1cnc2ccc(OC(F)(F)F)cc2c1Nc1ncccc1C(=O)O` [Compound 1A, 2-[[3-ethoxycarbonyl-6-(trifluoromethoxy)-4-quinolyl]amino]pyridine-3-carboxylic acid], for which the thermal shift (ΔTm) at 100 µM on PAPD5 [1] was 0.4 °C. Also, the “Inhibition” value at PAPD5 [2] was determined as 0.

`COCCCOc1cc2ncc(C(=O)N(C)C)c(Nc3ccccc3C(=O)O)c2cc1Br` [Compound 57A, 2-[[6-bromo-3-(dimethylcarbamoyl)-7-(3-methoxypropoxy)-4-quinolyl]amino]benzoic acid]: the ΔTm at 100 µM at PAPD5 [1] was 9.8 °C. On PAPD5 [2], the “Inhibition” value is given as “+++”.

For `CCOC(=O)c1cnc2ccc(OC3CCNCC3)cc2c1Nc1ccccc1C(=O)O` [Compound 19A, 2-[[3-ethoxycarbonyl-6-(4-piperidyloxy)-4-quinolyl]amino]benzoic acid], the ΔTm at 100 µM at PAPD5 [1] was 0.6 °C. For the same molecule, the “Inhibition” value at PAPD5 [2] was found to be 0.

With `COCCCOc1cc2ncc(-c3ncco3)c(Nc3ccccc3C(=O)O)c2cc1OC` [Compound 58A, 2-[[6-methoxy-7-(3-methoxypropoxy)-3-oxazol-2-yl-4-quinolyl]amino]benzoic acid], the ΔTm at 100 µM at PAPD5 [1] turned out to be 8.5 °C. The “Inhibition” value at PAPD5 [2] was “+”.

On to `O=C(O)c1c(O)cccc1Nc1c(S(=O)(=O)N2CCOCC2)cnc2ccc(Br)cc12` [Compound 78A, 2-[(6-bromo-3-morpholinosulfonyl-4-quinolyl)amino]-6-hydroxy-benzoic acid], for which, at PAPD5 [1], the ΔTm at 100 µM came to 17.1 °C. The “Inhibition” value at PAPD5 [2] is listed as “+++”.

For the molecule `N#Cc1cnc2ccc(-c3cccc4ncccc34)cc2c1Nc1ccccc1C(=O)O` [Compound 54A, 2-[[3-cyano-6-(5-quinolyl)-4-quinolyl]amino]benzoic acid], at PAPD5 [1], the “ΔTm 100 μM” value is recorded as “fluorescent”. At PAPD5 [2], the “Inhibition” value was “+++”.

For the molecule `COCCCOc1cc2ncc(C#N)c(Nc3cccc(O)c3C(=O)O)c2cc1OC` [Compound 55A, 2-[[3-cyano-6-methoxy-7-(3-methoxypropoxy)-4-quinolyl]amino]-6-hydroxy-benzoic acid], the ΔTm at 100 µM on PAPD5 [1] came to 13.9 °C. Further, on PAPD5 [2], the “Inhibition” value was “+++”.

As to `O=C(O)c1ccccc1Nc1c(C(=O)N2CCOCC2)cnc2ccc(OC(F)(F)F)cc12` [Compound 13A, 2-[[3-(morpholine-4-carbonyl)-6-(trifluoromethoxy)-4-quinolyl]amino]benzoic acid], the ΔTm at 100 µM at PAPD5 [1] was found to be 5.6 °C. The “Inhibition” value on PAPD5 [2] is recorded as “+”.

For `CCOC(=O)c1cnc2ccc(OC(F)(F)F)cc2c1Nc1ccccc1-c1nn[nH]n1` [Compound 10A, ethyl 4-[2-(2H-tetrazol-5-yl)anilino]-6-(trifluoromethoxy)quinoline-3-carboxylate], the ΔTm at 100 µM on PAPD5 [1] stood at 1 °C. The “Inhibition” value at PAPD5 [2] is recorded as “+”.

On to `COCCCOc1cc2ncc(C#N)c(-n3ccc(=O)c(C(=O)O)c3)c2cc1OC` [Compound 56A, 1-[3-cyano-6-methoxy-7-(3-methoxypropoxy)-4-quinolyl]-4-oxo-pyridine-3-carboxylic acid], for which, on PAPD5 [1], the ΔTm at 100 µM was 0.4 °C. Further, the “Inhibition” value on PAPD5 [2] is listed as 0.

Consider `Nc1cccc(Nc2c(S(=O)(=O)N3CCOCC3)cnc3ccc(Br)cc23)c1C(=O)O` [Compound 85A-BP, 2-amino-6-[(6-bromo-3-morpholinosulfonyl-4-quinolyl)amino]benzoic acid], for which, at PAPD5 [1], the ΔTm at 100 µM was 6.8 °C.

With `CCOC(=O)c1cnc2ccc(-c3cccc4[nH]ccc34)cc2c1Nc1ccccc1C(=O)O` [Compound 23A, 2-[[3-ethoxycarbonyl-6-(1H-indol-4-yl)-4-quinolyl]amino]benzoic acid], on PAPD5 [1], the ΔTm at 100 µM turned out to be 4.6 °C. At PAPD5 [2], the “Inhibition” value is given as “+++”.

`CC(=O)Nc1cccc(Nc2c(S(=O)(=O)N3CCOCC3)cnc3ccc(Br)cc23)c1C(=O)O` [Compound 85A, 2-acetamido-6-[(6-bromo-3-morpholinosulfonyl-4-quinolyl)amino]benzoic acid]: the ΔTm at 100 µM on PAPD5 [1] worked out at 0 °C.

For the molecule `CCOC(=O)c1ncn2c1[nH]c(=O)c1cnc3ccc(OC(F)(F)F)cc3c12` [Compound 31A, ethyl 14-oxo-7-(trifluoromethoxy)-17,18,19,20-tetrazatetracycloheptadeca-1(7),2(8),3(9),4(18),5(19),10,12-heptaene-12-carboxylate], at PAPD5 [1], the ΔTm at 100 µM is 1.8 °C. Besides, the “Inhibition” value on PAPD5 [2] worked out at 0.

On to `O=C(O)c1ccccc1Nc1c(S(=O)(=O)N2CCOCC2)cnc2ccc(Br)cc12` [Compound 70A, 2-[(6-bromo-3-morpholinosulfonyl-4-quinolyl)amino]benzoic acid], for which the ΔTm at 100 µM on PAPD5 [1] turned out to be 13.7 °C. Further, the “Inhibition” value at PAPD5 [2] is recorded as “+++”.

Turning to `CCOC(=O)c1cnc2ccc(OC(F)(F)F)cc2c1Nc1ccccc1C#N` [Compound 25A, ethyl 4-(2-cyanoanilino)-6-(trifluoromethoxy)quinoline-3-carboxylate], on PAPD5 [1], the ΔTm at 100 µM was found to be 0.1 °C. For the same molecule, on PAPD5 [2], the “Inhibition” value was 0.

With `CCOC(=O)c1cnc2ccc(OC(F)(F)F)cc2c1Nc1ccccc1C(=O)O` [Compound 32A, 2-[[3-ethoxycarbonyl-6-(trifluoromethoxy)-4-quinolyl]amino]benzoic acid], the ΔTm at 100 µM at PAPD5 [1] turned out to be 7.9 °C. Also, the “Inhibition” value on PAPD5 [2] was “+++”.

Take `O=C(O)c1c(Nc2c(S(=O)(=O)N3CCOCC3)cnc3ccc(Br)cc23)ccc(Br)c1O` [Compound 78A-BR, 3-bromo-6-[(6-bromo-3-morpholinosulfonyl-4-quinolyl)amino]-2-hydroxy-benzoic acid]: at PAPD5 [1], the “ΔTm 100 μM” value is reported as “fluorescent”.

In the case of `CCOC(=O)c1cnc2ccc(OC(F)(F)F)cc2c1Nc1ccccc1S(=O)(=O)NCC(F)(F)F` [Compound 34A, ethyl 4-[2-(2,2,2-trifluoroethylsulfamoyl)anilino]-6-(trifluoromethoxy)quinoline-3-carboxylate], the ΔTm at 100 µM at PAPD5 [1] came out at 0.3 °C. Besides, the “Inhibition” value at PAPD5 [2] came out at 0.

Consider `O=C(O)c1cccnc1Nc1c(C(=O)O)cnc2ccc(OC(F)(F)F)cc12` [Compound 28A, 4-[(3-carboxy-2-pyridyl)amino]-6-(trifluoromethoxy)quinoline-3-carboxylic acid], for which the ΔTm at 100 µM at PAPD5 [1] came out at 5.5 °C. Besides, the “Inhibition” value at PAPD5 [2] was “+”.

`COCCCOc1cc2ncc(C(=O)N3CCOCC3)c(Nc3ccccc3C(=O)O)c2cc1OC` [Compound 53A, 2-[[6-methoxy-7-(3-methoxypropoxy)-3-(morpholine-4-carbonyl)-4-quinolyl]amino]benzoic acid]: the ΔTm at 100 µM on PAPD5 [1] worked out at 5.2 °C. The “Inhibition” value at PAPD5 [2] is listed as “+”.

Consider `O=C(O)c1ccccc1Nc1c(S(=O)(=O)N2CCOCC2)cnc2ccc(Cl)cc12` [Compound 80A, 2-[(6-chloro-3-morpholinosulfonyl-4-quinolyl)amino]benzoic acid], for which the ΔTm at 100 µM at PAPD5 [1] was determined as 16.4 °C. Also, the “Inhibition” value at PAPD5 [2] is listed as “+++”.

Regarding `COc1cccc(Nc2c(S(=O)(=O)N3CCOCC3)cnc3ccc(Br)cc23)c1C(=O)O` [Compound 78A-INT, 2-[(6-bromo-3-morpholinosulfonyl-4-quinolyl)amino]-6-methoxy-benzoic acid], the ΔTm at 100 µM at PAPD5 [1] is 1.1 °C. For the same molecule, the “Inhibition” value at PAPD5 [2] is 0.

`CCOC(=O)c1cnc2ccc(OC(F)(F)F)cc2c1Nc1scnc1C(=O)O` [Compound 5A, 5-((3-(ethoxycarbonyl)-6-(trifluoromethoxy)quinolin-4-yl)amino)thiazole-4-carboxylic acid]: the ΔTm at 100 µM at PAPD5 [1] amounted to 2.3 °C. Moreover, the “Inhibition” value at PAPD5 [2] amounted to 0.

Turning to `NS(=O)(=O)c1cnc2ccc(Br)cc2c1Nc1ccccc1C(=O)O` [Compound 61A, 2-[(6-bromo-3-sulfamoyl-4-quinolyl)amino]benzoic acid], the ΔTm at 100 µM on PAPD5 [1] worked out at 11.1 °C. Moreover, the “Inhibition” value on PAPD5 [2] is given as “+++”.

For the molecule `CCOC(=O)c1cnc2ccc(-n3ccc4cc(O)ccc43)cc2c1Nc1ccccc1C(=O)O` [Compound 29A, 2-[[3-ethoxycarbonyl-6-(5-hydroxyindol-1-yl)-4-quinolyl]amino]benzoic acid], at PAPD5 [1], the ΔTm at 100 µM worked out at 4.9 °C. Also, on PAPD5 [2], the “Inhibition” value was “+++”.

With `COc1cccc(Nc2c(S(=O)(=O)N3CCN(C(=O)OCc4ccccc4)CC3)cnc3ccc(Br)cc23)c1C(=O)O` [Compound 93A-INT, 2-[[3-(4-benzyloxycarbonylpiperazin-1-yl)sulfonyl-6-bromo-4-quinolyl]amino]-6-methoxy-benzoic acid], on PAPD5 [1], the ΔTm at 100 µM was 0 °C.

For `COc1cccc(Nc2c(S(=O)(=O)N3CCOCC3)cnc3ccc(Cl)cc23)c1C(=O)O` [Compound 79A-INT, 2-[(6-chloro-3-morpholinosulfonyl-4-quinolyl)amino]-6-methoxy-benzoic acid], on PAPD5 [1], the ΔTm at 100 µM stood at 0 °C.

For the molecule `N#Cc1cnc2ccc(OC(F)(F)F)cc2c1Nc1ccccc1C(=O)O` [Compound 15A, 2-[[3-cyano-6-(trifluoromethoxy)-4-quinolyl]amino]benzoic acid], the ΔTm at 100 µM on PAPD5 [1] was 8.8 °C.
